Laboratory results as given in patent US7803801B2, “Aminopyridine compounds having Syk inhibitory activity” (Japan Tobacco, Inc., priority 2005, dated 2010).

Assays:
[1] = target: GST-Syk Full Protein (human) (Homo sapiens, UniProt P43405); assay: Syk kinase inhibition test (HTRF method); type: biochemical; details: Tables 2-x, thiophene compounds B; read-out: sykHTRK ave IC50
How it was run: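 Human GST-Syk full-length (6.4 nM) phosphorylated biotin-EDPDYEWPSA-NH2 (250 nM) with 100 μM ATP in HEPES pH 7.0/MgCl2 buffer, 2% DMSO, 30 min at room temperature. EDTA stop, then HTRF detection (streptavidin-XL665, Eu anti-phosphotyrosine) after 1 h; 665/620 ratio read.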

[2] = tested on: cultured human mast cells; assay: Degranulation inhibition test using cultured human mast cells (IgE cross-linking, β-Hexosaminidase release); type: cell-based; details: Mast cell; Tables 2-x, thiophene compounds B; cultured human mast cells; read-out: human degranulation ave. IC50
How it was run: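 CD34+ cord-blood cells cultured ≥8 weeks with SCF/IL-6/IL-3; FcεRI primed 5 days with rhIL-4 (1 ng/mL) and hIgE (0.5 μg/mL). Compound (0.1% DMSO) preincubated 10 min at 37 °C, then anti-IgE (final 10 μg/mL) 30 min; released β-hexosaminidase read at 405 nm versus total lysate, IC50 (M).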

Row | SMILES | IC50 [1] | IC50 [2]
1 | CC(=O)c1ccc(-c2cccc(Nc3cc(N(C)C)ncn3)n2)s1 [Compound B-26] | 0.1 to 1 µM | > 1 µM
2 | Cc1ccnc(Nc2cccc(-c3cccs3)n2)c1 [Compound B-27] | 0.1 to 1 µM | > 1 µM
3 | Cc1ccnc(Nc2cccc(-c3ccc([N+](=O)[O-])s3)n2)c1 [Compound B-28] | 0.1 to 1 µM | > 1 µM
4 | CC(=O)c1ccc(-c2ncc(C)c(Nc3cc(C)ccn3)n2)s1 [Compound B-29] | 0.1 to 1 µM | > 1 µM
5 | CC(=O)c1ccc(-c2cccc(Nc3cc(OC(C)C)ncn3)n2)s1 [Compound B-30, 1-{5-[6-(6-isopropoxypyrimidin-4-ylamino)pyridin-2-yl]thiophen-2-yl}ethanone] | < 0.1 µM | > 1 µM
6 | CO/N=C(\C)c1ccc(-c2cccc(Nc3cc(N(C)C)ncn3)n2)s1 [Compound B-32] | > 1 µM | > 1 µM
7 | CO/N=C(\C)c1ccc(-c2cccc(Nc3cc(OC(C)C)ncn3)n2)s1 [Compound B-33] | 0.1 to 1 µM | > 1 µM
8 | Cc1ccnc(Nc2cccc(-c3ccc(NC(=O)OC(C)(C)C)s3)n2)c1 [Compound B-34] | 0.1 to 1 µM | > 1 µM
9 | Cc1ccnc(Nc2cccc(-c3ccc(NC(=O)[C@H](C)O)s3)n2)c1 [Compound B-35] | 0.1 to 1 µM | 0.1 to 1 µM
10 | COC(=O)c1sc(-c2cccc(Nc3cc(C)ccn3)n2)cc1C [Compound B-36] | 0.1 to 1 µM | > 1 µM
11 | Cc1ccnc(Nc2cccc(-c3cc(C)c(C(=O)O)s3)n2)c1 [Compound B-37] | 0.1 to 1 µM | > 1 µM
12 | C/C(=N\OCCO)c1ccc(-c2cccc(Nc3cc(C)ccn3)n2)s1 [Compound B-38, 1-{5-[6-(4-methylpyridin-2-ylamino)pyridin-2-yl]thiophen-2-yl}ethanone O-(2-hydroxyethyl)oxime] | < 0.1 µM | 0.1 to 1 µM
13 | Cc1ccnc(Nc2cccc(-c3ccc(C4=NC(C)(C)CO4)s3)n2)c1 [Compound B-39] | 0.1 to 1 µM | > 1 µM
14 | CC(=O)c1sc(-c2cccc(Nc3cc(C)ccn3)n2)cc1C [Compound B-40] | 0.1 to 1 µM | > 1 µM
15 | Cc1ccnc(Nc2cccc(-c3ccc(C(=O)NCC(C)O)s3)n2)c1 (stereo not shown) [Compound B-41] | 0.1 to 1 µM | 0.1 to 1 µM
16 | CC(=NO)c1sc(-c2cccc(Nc3cc(C)ccn3)n2)cc1C [Compound B-42] | 0.1 to 1 µM | > 1 µM
17 | Cc1ccnc(Nc2cccc(-c3ccc(C(=O)NCCN)s3)n2)c1 [Compound B-43, N-(2-aminoethyl)-5-[6-(4-methylpyridin-2-ylamino)pyridin-2-yl]thiophene-2-carboxamide] | < 0.1 µM | > 1 µM
18 | COC(=O)c1cc(Br)nc(Nc2cccc(-c3ccc(C(C)=O)s3)n2)c1 [Compound B-44] | > 1 µM | > 1 µM
19 | Cc1ccnc(Nc2cccc(-c3ccc(C(O)C(C)C)s3)n2)c1 (stereo not shown) [Compound B-45] | 0.1 to 1 µM | > 1 µM
20 | COCCO/N=C(\C)c1ccc(-c2cccc(Nc3cc(C)ccn3)n2)s1 [Compound B-46] | 0.1 to 1 µM | > 1 µM

Row | SMILES | IC50 [1] | IC50 [2]
21 | CCC(O)c1ccc(-c2cccc(Nc3cc(C)ccn3)n2)s1 (stereo not shown) [Compound B-47] | 0.1 to 1 µM | 0.1 to 1 µM
22 | CCC(=O)c1ccc(-c2cccc(Nc3cc(C)ccn3)n2)s1 [Compound B-48] | 0.1 to 1 µM | > 1 µM
23 | Cc1ccnc(Nc2cccc(-c3ccc(C(=O)C(C)C)s3)n2)c1 [Compound B-49] | 0.1 to 1 µM | > 1 µM
24 | Cc1ccnc(Nc2cccc(-c3ccc(C(=NO)C(C)C)s3)n2)c1 [Compound B-50] | 0.1 to 1 µM | > 1 µM
25 | CCC(=NO)c1ccc(-c2cccc(Nc3cc(C)ccn3)n2)s1 [Compound B-51, 1-{5-[6-(4-methylpyridin-2-ylamino)pyridin-2-yl]thiophen-2-yl}propan-1-one oxime] | < 0.1 µM | > 1 µM
26 | CCOC(=O)Cc1ccnc(Nc2cccc(-c3ccc(C(C)=O)s3)n2)c1 [Compound B-52, {2-[6-(5-acetylthiophen-2-yl)pyridin-2-ylamino]pyridin-4-yl}acetic acid ethyl ester] | < 0.1 µM | > 1 µM
27 | COC(=O)c1ccnc(Nc2cccc(-c3ccc(C(C)=O)s3)n2)c1 [Compound B-53, 2-[6-(5-acetylthiophen-2-yl)pyridin-2-ylamino]isonicotinic acid methyl ester] | < 0.1 µM | > 1 µM
28 | Cc1ccnc(Nc2cccc(-c3ccc(C(O)CCO)s3)n2)c1 (stereo not shown) [Compound B-54] | 0.1 to 1 µM | 0.1 to 1 µM
29 | CC(O)c1ccc(-c2cccc(Nc3cc(CCO)ccn3)n2)s1 (stereo not shown) [Compound B-55, 1-(5-{6-[4-(2-hydroxyethyl)pyridin-2-ylamino]pyridin-2-yl}thiophen-2-yl)ethanol] | < 0.1 µM | 0.1 to 1 µM
30 | CC(=O)c1ccc(-c2cccc(Nc3cc(CCO)ccn3)n2)s1 [Compound B-56] | 0.1 to 1 µM | 0.1 to 1 µM
31 | Cc1ccnc(Nc2cccc(-c3ccc(C(=O)CCO)s3)n2)c1 [Compound B-57] | 0.1 to 1 µM | 0.1 to 1 µM
32 | CC(=O)c1ccc(-c2cccc(Nc3cc(C(=O)O)ccn3)n2)s1 [Compound B-58] | > 1 µM | > 1 µM
33 | Cc1ccnc(Nc2cccc(-c3ccc(C#N)s3)n2)c1 [Compound B-59] | 0.1 to 1 µM | > 1 µM
34 | Cc1ccnc(Nc2cccc(-c3ccc(/C(N)=N/O)s3)n2)c1 [Compound B-60, N-hydroxy-5-[6-(4-methylpyridin-2-ylamino)pyridin-2-yl]thiophene-2-carboxyamidine] | < 0.1 µM | 0.1 to 1 µM
35 | Cc1ccnc(Nc2cccc(-c3ccc(-c4noc(=O)[nH]4)s3)n2)c1 [Compound B-61] | 0.1 to 1 µM | > 1 µM
36 | CC(=O)c1ccc(-c2cccc(Nc3nccc(C)c3[N+](=O)[O-])n2)s1 [Compound B-62] | > 1 µM | > 1 µM
37 | CC(=O)c1ccc(-c2cccc(Nc3cc(NC(C)C)ccn3)n2)s1 [Compound B-63] | > 1 µM | > 1 µM
38 | CONC(=O)c1ccc(-c2cccc(Nc3cc(C)ccn3)n2)s1 [Compound B-64] | 0.1 to 1 µM | 0.1 to 1 µM
39 | CC(=O)c1ccc(-c2cccc(Nc3cc(C(N)=O)ccn3)n2)s1 [Compound B-65] | 0.1 to 1 µM | > 1 µM
40 | Cc1ccnc(Nc2cccc(-c3ccc(-c4cc(C)no4)s3)n2)c1 [Compound B-66] | 0.1 to 1 µM | > 1 µM

Row | SMILES | IC50 [1] | IC50 [2]
41 | CC(=O)c1ccc(-c2cccc(Nc3ccccn3)n2)s1 [Compound B-67] | 0.1 to 1 µM | > 1 µM
42 | CC(=O)c1csc(-c2cccc(Nc3cc(C)ccn3)n2)c1 [Compound B-68] | 0.1 to 1 µM | > 1 µM
43 | CO/N=C(\N)c1ccc(-c2cccc(Nc3cc(C)ccn3)n2)s1 [Compound B-69] | 0.1 to 1 µM | 0.1 to 1 µM
44 | Cc1ccnc(Nc2cccc(-c3cc(C)c(C(C)O)s3)n2)c1 (stereo not shown) [Compound B-70] | 0.1 to 1 µM | 0.1 to 1 µM
45 | Cc1ccnc(Nc2cccc(-c3ccc(CC(C)O)s3)n2)c1 (stereo not shown) [Compound B-71] | 0.1 to 1 µM | 0.1 to 1 µM
46 | Cc1ccnc(Nc2cccc(-c3ccc(C(=O)NC(C)(C)CO)s3)n2)c1 [Compound B-72] | 0.1 to 1 µM | 0.1 to 1 µM
47 | CC(=O)c1ccc(-c2cccc(Nc3cc(OCCO)ccn3)n2)s1 [Compound B-73, 1-(5-{6-[4-(2-hydroxyethoxy)pyridin-2-ylamino]pyridin-2-yl}thiophen-2-yl)ethanone] | < 0.1 µM | 0.1 to 1 µM
48 | CC(=O)c1ccc(-c2cccc(Nc3cc(Cl)ccn3)n2)s1 [Compound B-74, 1-{5-[6-(4-chloropyridin-2-ylamino)pyridin-2-yl]thiophen-2-yl}ethanone] | < 0.1 µM | 0.1 to 1 µM
49 | C/C(=N\O)c1ccc(-c2cccc(Nc3cc(Cl)ccn3)n2)s1 [Compound B-75, 1-{5-[6-(4-chloropyridin-2-ylamino)pyridin-2-yl]thiophen-2-yl}ethanone oxime] | < 0.1 µM | 0.1 to 1 µM
50 | CC(=O)c1ccc(-c2cccc(Nc3ccc(C)cn3)n2)s1 [Compound B-76] | > 1 µM | > 1 µM
51 | CCOC(=O)c1cc(Nc2cc(C)ccn2)nc(-c2ccc(C(C)=O)s2)c1 [Compound B-77] | > 1 µM | > 1 µM
52 | CC(=O)c1ccc(-c2cccc(Nc3cc(C4(C)OCCO4)ccn3)n2)s1 [Compound B-78] | 0.1 to 1 µM | 0.1 to 1 µM
53 | Cc1ccnc(Nc2cccc(-c3ccc(C(=O)N4CCC(O)CC4)s3)n2)c1 [Compound B-79] | 0.1 to 1 µM | 0.1 to 1 µM
54 | Cc1ccnc(Nc2cccc(-c3ccc(C(=O)N4CCC[C@H]4CO)s3)n2)c1 [Compound B-80] | 0.1 to 1 µM | 0.1 to 1 µM
55 | Cc1ccnc(Nc2cccc(-c3ccc(C(=O)N4CCOCC4)s3)n2)c1 [Compound B-81] | 0.1 to 1 µM | 0.1 to 1 µM
56 | CC(=O)c1ccc(-c2cccc(Nc3cc(OCCN(C)C)ccn3)n2)s1 [Compound B-82] | 0.1 to 1 µM | 0.1 to 1 µM
57 | CC(=O)c1ccnc(Nc2cccc(-c3ccc(C(C)=O)s3)n2)c1 [Compound B-83] | 0.1 to 1 µM | 0.1 to 1 µM
58 | Cc1ccnc(Nc2cccc(-c3ccc(C(=O)N4CCNCC4)s3)n2)c1 [Compound B-84, {5-[6-(4-methylpyridin-2-ylamino)pyridin-2-yl]thiophen-2-yl}piperazin-1-ylmethanone] | < 0.1 µM | 0.1 to 1 µM
59 | CC(=O)N1CCN(C(=O)c2ccc(-c3cccc(Nc4cc(C)ccn4)n3)s2)CC1 [Compound B-85] | 0.1 to 1 µM | 0.1 to 1 µM
